Assay results taken from patent publication US20060069132A1, “Azolecarboxamide herbicides” (priority 2004, published 2006).

Columns and labels:
barnyardgrass [1] = assay: Test B pre-/postemergence herbicide test; format: in vivo, Echinochloa crus-galli; conditions: for Barnyardgrass plant response rating: Postemergence, scale 0 (no effect) to 100 (complete control)
How it was run: (§1)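 Response was scored visually 13 to 15 days after treatment against untreated greenhouse controls, 0 meaning no effect and 100 complete control. Formulations (solvent mixture plus surfactant) went onto soil after planting, onto foliage of 1- to 4-leaf plants, and onto 2-leaf plants in a flooded paddy set including rice and barnyardgrass.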

Surinam grass = assay: Test B pre-/postemergence herbicide test; format: in vivo, Urochloa decumbens
How it was run: (§2)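 Flooded paddy rice and barnyardgrass were treated at the 2-leaf stage; upland plantings received compound either on sown seed or on 1- to 4-leaf seedlings. All were kept 13–15 days in a greenhouse and scored visually, 0–100, relative to untreated plants.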

cocklebur = assay: Test B pre-/postemergence herbicide test; format: in vivo, Xanthium strumarium
How it was run: as §1

corn = assay: Test B pre-/postemergence herbicide test; format: in vivo, Zea mays
How it was run: as §2

large crabgrass = assay: Test B pre-/postemergence herbicide test; format: in vivo, Digitaria sanguinalis
How it was run: as §2

giant foxtail = assay: Test B pre-/postemergence herbicide test; format: in vivo, Setaria faberi
How it was run: as §2

lambsquarters = assay: Test B pre-/postemergence herbicide test; format: in vivo, Chenopodium album
How it was run: as §2

morningglory = assay: Test B pre-/postemergence herbicide test; format: in vivo, Ipomoea coccinea
How it was run: as §1

pigweed = assay: Test B pre-/postemergence herbicide test; format: in vivo, Amaranthus retroflexus
How it was run: as §2

velvetleaf = assay: Test B pre-/postemergence herbicide test; format: in vivo, Abutilon theophrasti
How it was run: as §2

blackgrass [2] = assay: Test B postemergence herbicide test; format: in vivo, Alopecurus myosuroides
How it was run: (§3)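 Visual control ratings, 0–100 versus untreated controls, taken after 13 to 15 days in the greenhouse. Blackgrass received a postemergence spray at the 1- to 4-leaf stage (2–18 cm); ducksalad, umbrella sedge and barnyardgrass were flooded-paddy treated at 2 leaves.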

wheat [3] = assay: Test B postemergence herbicide test; format: in vivo, Triticum aestivum; set-up: key to Wheat plant response rating: 0 = no effect, 100 = complete control
How it was run: (§4)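 Visual ratings, 0 (no effect) to 100 (complete control), made versus controls after 13–15 d greenhouse. Paddy plants treated at 2-leaf stage; postemergence plants at 1- to 4-leaf stage, 2–18 cm tall.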

wild oat [4] = assay: Test B postemergence herbicide test; format: in vivo, Avena fatua
How it was run: as §4

rice = assay: Test B flooded paddy test; format: in vivo, Oryza sativa; conditions: 1000 g ai/ha, scale 0 to 100 (0 no effect, 100 complete control)
How it was run: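 After treating 2-leaf paddy plants or 2–18 cm postemergence plants (1 to 4 leaves) with formulated chemical, researchers kept them in a greenhouse for 13–15 days. Effects were judged visually versus controls: 0 indicates none, 100 total control.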

[5] = tested on: small flower umbrella sedge; assay: Test B flooded paddy test; format: in vivo, Cyperus difformis; conditions: 1000 g ai/ha, scale 0 to 100 (0 no effect, 100 complete control)
How it was run: as §3

ducksalad = assay: Test B flooded paddy test; format: in vivo, Heteranthera limosa; conditions: 1000 g ai/ha, scale 0 to 100 (0 no effect, 100 complete control)
How it was run: as §3

barnyardgrass [6] = assay: Test B flooded paddy test; format: in vivo, Echinochloa crus-galli; conditions: 1000 g ai/ha, scale 0 to 100 (0 no effect, 100 complete control)
How it was run: as §3

winter barley = assay: Test C postemergence herbicide test; format: in vivo, Hordeum vulgare
Protocol: (§5) At the same time, plants selected from these crop and weed species and also winter barley (Hordeum vulgare L.), blackgrass (Alopecurus myosuroides Huds.), canarygrass (Phalaris minor Retz.), chickweed (Stellaria media (L.) Vill.), downy bromegrass (Bromus tectorum L.), green foxtail (Setaria viridis (L.) Beauv.), Italian ryegrass (Lolium multiflorum Lam.), wheat (Triticum aestivum L.), wild oat (Avenafatua L.) and windgrass (Apera spica-venti (L.) Beauv.) were treated with postemergence applications of some of the test chemicals formulated in the same manner. Plants ranged in height from 2 to 18 cm (1- to 4-leaf stage) for postemergence treatments. Plant species in the flooded paddy test consisted of rice (Oryza sativa), smallflower umbrella sedge (Cyperus difformis L.), ducksalad (Heteranthera limosa (Sw.) Willd.) and barnyardgrass (Echinochloa crus-galli (L.) Beauv.) grown to the 2-leaf stage for testing. Treated plants and controls were maintained in a greenhouse for 12 to 14 days, after which time all species were compared to controls and visually evaluated. Plant response ratings, summarized in Table C, are based on a scale of 0 to 100 where 0 is no effect and 100 is complete control. A dash (-) response means no test result.

blackgrass [7] = assay: Test C postemergence herbicide test; format: in vivo, Alopecurus myosuroides
Protocol: as §5

canarygrass = assay: Test C postemergence herbicide test; format: in vivo, Phalaris minor
Protocol: as §5

downy bromegrass = assay: Test C postemergence herbicide test; format: in vivo, Bromus tectorum
Protocol: as §5

green foxtail = assay: Test C postemergence herbicide test; format: in vivo, Setaria viridis
Protocol: as §5

Italian ryegrass = assay: Test C postemergence herbicide test; format: in vivo, Lolium multiflorum
Protocol: as §5

wheat [8] = assay: Test C postemergence herbicide test; format: in vivo, Triticum aestivum
Protocol: as §5

wild oat [9] = assay: Test C postemergence herbicide test; format: in vivo, Avenafatua
Protocol: as §5

windgrass = assay: Test C postemergence herbicide test; format: in vivo, Apera spica-venti
Protocol: as §5

[10] = 125 g ai/ha, 0 is no effect, 100 is complete control, preemergence
[11] = Postemergence, 500 g ai/ha, scale 0 (no effect) to 100 (complete control)
[12] = postemergence, 125 g ai/ha, scale 0 to 100
[13] = Postemergence, 500 g ai/ha, scale 0 to 100
[14] = Postemergence, 250 g ai/ha, scale 0 to 100, 0 no effect, 100 complete control
[15] = postemergence, 62 g ai/ha, scale 0 to 100
[16] = Postemergence, 500 g ai/ha, scale 0 to 100, 0 no effect, 100 complete control

Structure (SMILES): C=CCN(CC=C)C(=O)c1cccc(NC(=O)c2nn(C(C)(C)C)nc2CC)c1 [Compound 415]
- Plant response rating (0 to 100 scale), Barnyardgrass (barnyardgrass [1]; [10]): 10
- Barnyardgrass plant response rating (barnyardgrass [1]; 125 g ai/ha): 20
- Barnyardgrass plant response rating (barnyardgrass [1]; 500 g ai/ha): 20
- Plant response rating (0 to 100 scale), Surinam Grass (Surinam grass; [10]): 20
- Surinam Grass plant response rating (Surinam grass; [11]): 30
- Surinam Grass plant response rating (Surinam grass; [12]): 10
- Plant response rating (0 to 100 scale), Cocklebur (cocklebur; [10]): 0
- Cocklebur plant response rating (cocklebur; [11]): 50
- Cocklebur plant response rating (cocklebur; [12]): 30
- Plant response rating (0 to 100 scale), Corn (corn; [10]): 0
- Corn plant response rating (corn; [11]): 20
- Corn plant response rating (corn; [12]): 20
- Plant response rating (0 to 100 scale), Crabgrass, Large (large crabgrass; [10]): 70
- Crabgrass, Large plant response rating (large crabgrass; [11]): 50
- Crabgrass, Large plant response rating (large crabgrass; [12]): 20
- Plant response rating (0 to 100 scale), Foxtail, Giant (giant foxtail; [10]): 20
- Foxtail, Giant plant response rating (giant foxtail; [11]): 40
- Foxtail, Giant plant response rating (giant foxtail; [12]): 20
- Plant response rating (0 to 100 scale), Lambsquarters (lambsquarters; [10]): 50
- Lambsquarters plant response rating (lambsquarters; [11]): 80
- Lambsquarters plant response rating (lambsquarters; [12]): 70
- Plant response rating (0 to 100 scale), Morningglory (morningglory; [10]): 0
- Morningglory plant response rating (morningglory; [11]): 40
- Morningglory plant response rating (morningglory; [12]): 10
- Plant response rating (0 to 100 scale), Pigweed (pigweed; [10]): 60
- Pigweed plant response rating (pigweed; [11]): 90
- Pigweed plant response rating (pigweed; [12]): 70
- Plant response rating (0 to 100 scale), Velvetleaf (velvetleaf; [10]): 20
- Velvetleaf plant response rating (velvetleaf; [11]): 50
- Velvetleaf plant response rating (velvetleaf; [12]): 30
- Blackgrass plant response rating (blackgrass [2]; [11]): 40
- Blackgrass plant response rating (blackgrass [2]; [12]): 30
- Wheat plant response rating (wheat [3]; 500 g ai/ha, scale 0 to 100, 0 no effect, 100 complete control, preemergence): 30
- Wheat plant response rating (wheat [3]; [11]): 30
- Wheat plant response rating (wheat [3]; [12]): 20
- Oat, Wild plant response rating (wild oat [4]; [11]): 40
- Oat, Wild plant response rating (wild oat [4]; [12]): 30
- Rice plant response rating (rice): 50
- Sedge, Umbrella plant response rating [5]: 80
- Ducksalad plant response rating (ducksalad): 80
- Barnyardgrass plant response rating (barnyardgrass [6]): 60
- Barley, Winter plant response rating (winter barley; [13]): 45
- Plant response rating, Barley, Winter (winter barley; Postemergence, 125 g ai/ha, scale 0 to 100, 0 no effect, 100 complete control): 35
- Plant response rating, Barley, Winter (winter barley; [14]): 35
- Plant response rating, Barley, Winter (winter barley; postemergence, 62 g ai/ha, scale 0 to 100 (0 no effect, 100 complete control)): 35
- Blackgrass plant response rating (blackgrass [7]; [13]): 65
- Plant response rating, Blackgrass (blackgrass [7]; [14]): 60
- Plant response rating, Blackgrass (blackgrass [7]; [12]): 60
- Plant response rating, Blackgrass (blackgrass [7]; [15]): 50
- Plant response rating, Canarygrass (canarygrass; [14]): 55
- Plant response rating, Canarygrass (canarygrass; [16]): 65
- Plant response rating, Canarygrass (canarygrass; [12]): 50
- Plant response rating, Canarygrass (canarygrass; [15]): 45
- Plant response rating, Bromegrass, Downy (downy bromegrass; [14]): 60
- Plant response rating, Bromegrass, Downy (downy bromegrass; [16]): 65
- Plant response rating, Bromegrass, Downy (downy bromegrass; [12]): 60
- Plant response rating, Bromegrass, Downy (downy bromegrass; [15]): 60
- Plant response rating, Foxtail, Green (green foxtail; [14]): 50
- Plant response rating, Foxtail, Green (green foxtail; [16]): 60
- Plant response rating, Foxtail, Green (green foxtail; [12]): 50
- Plant response rating, Foxtail, Green (green foxtail; [15]): 45
- Plant response rating, Ryegrass, Italian (Italian ryegrass; [16]): 45
- Plant response rating, Ryegrass, Italian (Italian ryegrass; [12]): 40
- Plant response rating, Ryegrass, Italian (Italian ryegrass; [15]): 30
- Plant response rating, Wheat (wheat [8]; [16]): 30
- Plant response rating, Wheat (wheat [8]; [12]): 25
- Plant response rating, Wheat (wheat [8]; [15]): 20
- Plant response rating, Oat, Wild (wild oat [9]; [16]): 55
- Plant response rating, Oat, Wild (wild oat [9]; [12]): 45
- Plant response rating, Oat, Wild (wild oat [9]; [15]): 40
- Plant response rating, Windgrass (windgrass; [16]): 65
- Plant response rating, Windgrass (windgrass; [12]): 50
- Plant response rating, Windgrass (windgrass; [15]): 50
